Source: patent EP3349734B1, “USE OF SOLUBLE AND INSOLUBLE FRACTIONS OF A CYCLODEXTRIN POLYMER AND OF MIXTURES THEREOF AS AN EXCIPIENT IN A TABLET” (Université de Lille, priority 2015, dated 2017)

How the values were obtained:
Assay type in all cases: physicochemical
[1] = Dissolution test of ibuprofène (Sotax USP 4, HCl pH = 1); settings: in 45 minutes, 500 mL HCl pH = 1, 37°C, 50 mL/min
Description: (§1) La dissolution de principes actifs à partir de comprimés selon l'invention, i.e. les comprimés formés à partir de fractions solubles de polymères de cyclodextrine, a été comparée à la dissolution de principes actifs à partir de comprimés formés à partir de cyclodextrines sous forme de monomères ainsi qu'à la dissolution du principe actif non compris dans une forme galénique.
(§2) La poudre contenant les cyclodextrines ou les fractions solubles de polymère de cyclodextrine et le principe actif a été obtenue par granulation humide comme détaillé dans l'exemple 4. Le ratio CD ou PolyCD / ibuprofène était de 90/10 et le ratio CD ou PolyCD / Piroxicam était de 60 / 40. Les essais de dissolution ont été réalisés dans un système Sotax® USP 4 (50 mL/min, 37°C) muni d'un détecteur UV. L'ibuprofène et le piroxicam ont été détectés à une longueur d'onde de 264 et 334 nm, respectivement.
(§3) Le milieu de dissolution est composé de 500 mL de HCl (pH = 1) dans le cas de l'ibuprofène, et de 500 mL de HCl (pH = 4) dans le cas du piroxicam. Des échantillons ont été prélevés toutes les 2 minutes pendant 1 h et analysés par un spectromètre UV-VIS (Perkin Elmer Lambda 25). Les courbes sont obtenues en pourcentage en divisant la quantité de principe actif libérée au cours du temps par la quantité de principe actif initiale.

[2] = Glass transition by DSC (Gordon-Taylor extrapolation of mannitol mixtures; quenched melt); settings: after melt-quench at 210°C, heating 5°C/min
Method: Les expériences de calorimétrie ont été réalisées avec la DSC Q200 de chez TA Instruments. Les échantillons ont été placés dans des creusets en aluminium ouverts et balayés avec de l'azote gazeux pur. L'instrument a été étalonné en température et en enthalpie en utilisant l'indium comme standard. […]
La figure 12 montre les thermogrammes des mélanges poly-βCD / mannitol enregistrés au chauffage (5°C/min). Ils présentent tous un saut de chaleur spécifique (Cp) caractéristique d'une transition vitreuse. Ce saut est unique, ce qui indique que les mélanges sont dans un état physique amorphe homogène. La température de transition vitreuse Tg (prise au point d'inflexion du saut) diminue lorsque la concentration en mannitol augmente ce qui montre l'effet plastifiant du mannitol sur la poly-βCD. L'évolution du Tg du mélange ave la concentration en mannitol (X) suit une loi de Gordon Taylor dont l'extrapolation à X = 0 permet d'estimer le Tg de la poly-βCD pure. On trouve Tg # 400°C. La transition vitreuse de la poly-βCD se situe donc à très haute température et bien au-dessus de sa température de dégradation thermique. Elle ne peut donc pas être observée directement en DSC. Une étude analogue menée avec la poly-MebCD révèle un comportement identique et une transition vitreuse proche de Tg = 317°C. […]

[3] = Dissolution test of piroxicam (Sotax USP 4, HCl pH = 4); settings: in 45 minutes; 500 mL HCl pH = 4, 37°C, 50 mL/min
Description: as §1, §2, §3

[4] = Phase-solubility diagram of ibuprofène with cyclodextrins or soluble polymer fractions; settings: calculated from slope and So of the solubility diagram
Method: (§4) Les diagrammes de solubilité de plusieurs principes actifs ont été effectués en présence de cyclodextrines et de fractions solubles de polymères de cyclodextrine mentionnés à l'exemple 1.
(§5) Des solutions de concentration croissante de cyclodextrines et fractions solubles de polymères de cyclodextrine ont été préparées dans de l'eau ultrapure [0-70 g/L]. 10 mL de chacune des solutions ont été mis en présence d'un excès du principe actif (20 mg) sous agitation pendant 24 heures à température ambiante. Les solutions ont ensuite été filtrées avec une membrane en cellulose et en Nylon (0,45 µm; VWR International, USA) respectivement pour l'Ibuprofène et le Piroxicam. L'ibuprofène a été dosé par HPLC (Shimadzu LC-2010 HT Liquid Chromatography), la phase mobile de l'ibuprofène est un mélange acétonitrile/eau (60:40) avec un pH de 2,25, une colonne C18 a été utilisée. Le piroxicam a été dosé par spectrophotométrie UV-Vis à 356 nm (UV 1800 Shimadzu).
(§6) La constante de stabilité (K1:1) est utilisée pour comparer l'affinité de principes actifs pour différentes cyclodextrines ou dérivés. La solubilité totale de médicament (St) en solution aqueuse de cyclodextrine sera : [formula]
(§7) So = solubilité intrinsèque du médicament; [CD]1 = concentration totale en cyclodextrine dans le milieu aqueux
(§8) Une parcelle de St rapport [CD] t, selon l'équation (1), donnera une ligne droite avec une pente (K 1:1 So / (1 + K 1:1 So)) et une interception (Sint) égale à So. K 1:1 est calculée à partir de la pente et So : [formula]
Afin de pouvoir faire une comparaison directe entre cyclodextrine monomère et cyclodextrine polymérisée, les diagrammes de solubilité sont présentés en fonction de la concentration rapportée en gramme de monomère de cyclodextrine par litre. Tableau 3 : Solubilité de l'ibuprofène et constantes de complexation en présence des cyclodextrines ou de fractions solubles de polymères de cyclodextrine à 10 et 50 g/L en cyclodextrine. L'utilisation de cyclodextrines sous forme de monomères ne tombe pas sous l'étendue de la protection revendiquée.

[5] = Phase-solubility diagram of piroxicam with cyclodextrins or soluble polymer fractions; settings: calculated from slope and So of the solubility diagram
Method: as §4, §5, §6, §7, §8

Compound | Constante de complexation K1:1 [4] [M⁻¹] | other results
CC(C)Cc1ccc(C(C)C(=O)O)cc1 (stereo not shown) [ibuprofène, acide 2-[4-isobutylphényl]propanoique] |  | dissolution du principe actif [1]: 15%
CN1C(C(=O)Nc2ccccn2)=C(O)c2ccccc2S1(=O)=O [piroxicam, 1,1-dioxydede 4-hydroxy-2-méthyl-N-(2-pyridinyl)-2H-1,2-benzothiazine-3-carboxamide] |  | Tg (saut de chaleur spécifique) [2]: 65 °C; libération du piroxicam [3]: 10%
OC[C@H]1O[C@@H]2O[C@H]3[C@H](O)[C@@H](O)[C@@H](O[C@H]4[C@H](O)[C@@H](O)[C@@H](O[C@H]5[C@H](O)[C@@H](O)[C@@H](O[C@H]6[C@H](O)[C@@H](O)[C@@H](O[C@H]7[C@H](O)[C@@H](O)[C@@H](O[C@H]8[C@H](O)[C@@H](O)[C@@H](O[C@H]9[C@H](O)[C@@H](O)[C@@H](O[C@H]1[C@H](O)[C@H]2O)O[C@@H]9CO)O[C@@H]8CO)O[C@@H]7CO)O[C@@H]6CO)O[C@@H]5CO)O[C@@H]4CO)O[C@@H]3CO [γCD, γ-cyclodextrine] | 1 | Constante de complexation K1:1 [5]: 890 M⁻¹
hydroxypropyl-β-cyclodextrine [HPβCD1] | 17 | 
hydroxypropyl-β-cyclodextrine [HPβCD2] | 45 | Constante de complexation K1:1 [5]: 185 M⁻¹
hydroxypropyl-γ-cyclodextrine [HPγCD] | 11 | 
méthyl-β-cyclodextrine [MeβCD] | 33 | 
